Data reported in ChEMBL document CHEMBL5370659 (J Med Chem, 2023).
≈ marks a conversion by molar mass, not a printed value.

Assays:
[1] = target: T1, Tryptophan 5-hydroxylase 1 (Homo sapiens, UniProt P17752); experiment: Inhibition of recombinant MBP-tagged full length human THP1 using L-Trp as substrate assessed as formation of 5-HTP by measuring fluorescent property
T1 sequence (P17752 whole entry): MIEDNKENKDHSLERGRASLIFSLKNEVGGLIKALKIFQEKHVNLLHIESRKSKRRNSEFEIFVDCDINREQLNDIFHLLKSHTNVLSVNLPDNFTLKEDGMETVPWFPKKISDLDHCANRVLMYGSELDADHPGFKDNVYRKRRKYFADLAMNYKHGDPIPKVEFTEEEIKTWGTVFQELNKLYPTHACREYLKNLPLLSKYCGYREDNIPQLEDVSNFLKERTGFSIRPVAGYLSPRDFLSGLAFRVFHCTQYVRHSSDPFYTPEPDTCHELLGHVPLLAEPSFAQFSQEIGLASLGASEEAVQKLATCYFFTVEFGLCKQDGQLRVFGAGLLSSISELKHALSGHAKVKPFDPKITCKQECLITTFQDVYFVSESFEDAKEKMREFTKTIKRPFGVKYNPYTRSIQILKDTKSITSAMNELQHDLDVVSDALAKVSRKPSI

[2] = target: T2, Tryptophan 5-hydroxylase 2 (Homo sapiens, UniProt Q8IWU9); experiment: Inhibition of recombinant MBP-tagged full length human THP2 using L-Trp as substrate assessed as formation of 5-HTP by measuring fluorescent property
T2 sequence (Q8IWU9 whole entry): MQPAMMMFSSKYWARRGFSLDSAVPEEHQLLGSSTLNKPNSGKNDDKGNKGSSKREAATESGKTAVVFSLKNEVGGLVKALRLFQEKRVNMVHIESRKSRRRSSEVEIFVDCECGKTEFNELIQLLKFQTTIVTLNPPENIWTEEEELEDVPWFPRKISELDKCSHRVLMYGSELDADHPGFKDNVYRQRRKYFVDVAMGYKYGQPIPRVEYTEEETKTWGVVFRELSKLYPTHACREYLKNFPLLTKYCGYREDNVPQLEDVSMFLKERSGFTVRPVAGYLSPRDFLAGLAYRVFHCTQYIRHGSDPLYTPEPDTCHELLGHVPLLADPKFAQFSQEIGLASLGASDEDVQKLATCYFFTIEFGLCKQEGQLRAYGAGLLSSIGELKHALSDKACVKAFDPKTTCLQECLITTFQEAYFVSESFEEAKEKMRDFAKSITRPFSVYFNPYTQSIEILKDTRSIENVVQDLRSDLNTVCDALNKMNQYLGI

[3] = Aqueous solubility of the compound in pH 7.4 PBS buffer by HPLC-UV analysis; format: physicochemical
[4] = Plasma protein binding in human; format: ADME, cell-free; conditions: read-out: PPB (converted)
[5] = Plasma protein binding in rat; format: ADME, cell-free; conditions: read-out: PPB (converted)
[6] = Apparent permeability across apical to basal side in human Caco-2 cells at pH 6.5/7.4 measured at 5 uM by LC-MS/MS analysis; format: ADME, cell-based; conditions: Caco-2, pH 6.5
[7] = Apparent permeability across basal to apical side in human Caco-2 cells at pH 6.5/7.4 measured at 5 uM by LC-MS/MS analysis; format: ADME, cell-based; conditions: Caco-2, pH 6.5
[8] = Metabolic stability in human hepatocytes assessed as half life; format: ADME, cell-based, Hepatocyte
[9] = Metabolic stability in rat hepatocytes assessed as half life; format: ADME, cell-based, Hepatocyte
[10] = Metabolic stability in human hepatocytes assessed as intrinsic clearance; format: ADME, cell-based, Hepatocyte; conditions: read-out: CLH
[11] = Metabolic stability in rat hepatocytes assessed as intrinsic clearance; format: ADME, cell-based, Hepatocyte; conditions: read-out: CLH
[12] = Permeability across apical to basal side in MDCK-MDR1 cells at pH 6.5/7.4 measured at 5 uM by LC-MS/MS analysis; format: ADME, cell-based, Canis lupus familiaris; conditions: dog, MDCK-MDR1, pH 6.5
[13] = Permeability across basal to apical side in MDCK-MDR1 cells at pH 6.5/7.4 measured at 5 uM by LC-MS/MS analysis; format: ADME, cell-based, Canis lupus familiaris; conditions: dog, MDCK-MDR1, pH 6.5
[14] = Brain homogenate binding in mouse; format: ADME, tissue-based
[15] = Brain homogenate binding in rat; format: ADME, tissue-based

Row | IC50 [1] [nM] | IC50 [2] [nM] | other results | SMILES
1 | 394 | 32 |  | CCn1c(=O)[nH]c(=O)c2c1nc(Cc1cn3c(n1)CCCC3)n2CC1CCC1
2 | > 10000 | > 10000 |  | CCn1c(=O)[nH]c(=O)c2c1nc(Cc1cn3cc(C)sc3n1)n2CC1CCN(C(C)C)CC1
3 | 772 | 57 |  | CCn1c(=O)[nH]c(=O)c2c1nc(Cc1cn3c(n1)CCCC3)n2CC1COC1
4 | 357 | 58 |  | CCn1c(=O)[nH]c(=O)c2c1nc(Cc1cn3cc(C)sc3n1)n2Cc1cccc(C(=O)O)c1
5 | 3270 | 307 |  | CCn1c(=O)[nH]c(=O)c2c1nc(Cc1cn3c(n1)CCCC3)n2Cc1cccc(C(=O)O)c1
6 | 380 | 63 |  | CCn1c(=O)[nH]c(=O)c2c1nc(Cc1cn3c(n1)CCCC3)n2Cc1cccc(C(=O)NC[C@H](NC(=O)OCc2ccccc2)C(=O)OC)c1
7 | 151 | 51 |  | CCc1nc(C)ccc1OCC(=O)N1CCc2nc3n(c2C1c1ccc(Cl)cc1F)CCCC3 (racemic)
8 | 196 | 24 |  | CCn1c(=O)[nH]c(=O)c2c1nc(Cc1cn3cc(C)sc3n1)n2Cc1cccc(C)n1
9 | 66 | 22 |  | CCn1c(=O)[nH]c(=O)c2c1nc(Cc1cn3cc(C)sc3n1)n2Cc1cccc(C(=O)OC)c1
10 | > 10000 | > 10000 |  | CCn1c(=O)[nH]c(=O)c2c1nc(Cc1cn3cc(C)sc3n1)n2CC1CCNCC1
11 | 271 | 52 |  | CCn1c(=O)[nH]c(=O)c2c1nc(Cc1cn3cc(C)sc3n1)n2Cc1ccc(C(F)(F)F)cc1
12 | 343 | 38 |  | CCn1c(=O)[nH]c(=O)c2c1nc(Cc1cn3cc(C)sc3n1)n2CCCOC
13 | 118 | 37 | solubility [3]: 200 µM (≈ 84.2 µg/mL); fraction unbound [4]: 0.38; fraction unbound [5]: 0.5; Papp A→B at 5 µM [6]: 0.26 ×10⁻⁶ cm/s; Papp B→A at 5 µM [7]: 29 ×10⁻⁶ cm/s; half-life [8]: > 2.42 h; half-life [9]: > 2.42 h; CLint scaled [10]: < 8.6 mL/min/kg; CLint scaled [11]: < 17 mL/min/kg; Papp A→B at 5 µM [12]: < 0.64 ×10⁻⁶ cm/s; Papp B→A at 5 µM [13]: 30 ×10⁻⁶ cm/s; Activity [14]: < 1%; Activity [15]: < 1% | CCn1c(=O)[nH]c(=O)c2c1nc(Cc1cn3cc(Cl)sc3n1)n2CC1COC1
14 | 157 | 41 |  | CCn1c(=O)[nH]c(=O)c2c1nc(Cc1cn3cc(C)sc3n1)n2Cc1cccc(C(F)(F)F)c1
15 | 676 | 116 |  | CCn1c(=O)[nH]c(=O)c2c1nc(Cc1cn3cc(C)sc3n1)n2CCC=C(C)C
16 | 47 | 31 |  | CCn1c(=O)[nH]c(=O)c2c1nc(Cc1cn3cc(C)sc3n1)n2CC1CCC1
17 | 107 | 26 |  | CCOC(=O)CCCn1c(Cc2cn3cc(C)sc3n2)nc2c1c(=O)[nH]c(=O)n2CC
18 | 228 | 24 |  | CCn1c(=O)[nH]c(=O)c2c1nc(Cc1cn3cc(C)sc3n1)n2C(C)C
